Experimental data published in patent US6723710B2, “Compositions for inhibiting arginase activity” (The Trustees of the University of Pennsylvania, priority 1997, dated 2004).
“And” between values parts separate entries of the source, which are not always exact repeats. Equal entries are not always repeated. “Also recorded” adds a separate entry of the source. Where two headings read alike, the source gives them in different places.

Columns and labels:
rat liver arginase [1] = molecular target: T1, rat liver arginase (Rattus norvegicus, UniProt P07824); assay: [14C-guanidino]-arginine arginase activity assay (Example 2); format: biochemical; settings: 100 millimolar CHES, pH 9.0, 1 millimolar arginine; read-out: IC50 for inhibition of arginase
T1 sequence (P07824 1-323): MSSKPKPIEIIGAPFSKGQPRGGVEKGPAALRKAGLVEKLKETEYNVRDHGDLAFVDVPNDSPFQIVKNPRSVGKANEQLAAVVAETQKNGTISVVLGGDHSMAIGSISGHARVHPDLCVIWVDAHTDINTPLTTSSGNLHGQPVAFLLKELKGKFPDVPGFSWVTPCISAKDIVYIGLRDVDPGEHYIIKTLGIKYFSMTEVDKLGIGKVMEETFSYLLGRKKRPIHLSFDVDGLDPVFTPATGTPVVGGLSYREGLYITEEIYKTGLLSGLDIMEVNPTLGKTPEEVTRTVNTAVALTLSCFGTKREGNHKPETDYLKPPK
Experimental: Arginase activity was assessed using the ^(14C-guanidino)-arginine assay of Rüegg et al. (1980, Anal. Biochem. 102:206-212), as described (Reczkowski et al., 1994, Arch. Biochem. Biophys. 312:31-37). […] […] et al., 1994, Biochem. Biophys. Res.

liver arginase activity = assay: arginase activity in liver homogenate; format: biochemical, opossum; settings: for potency against liver arginase activity relative to non-hepatic tissues: liver versus IAS, rectum, brain
Excerpt: (§1) Tissue samples of the opossum internal anal sphincter muscle (IAS), adjoining rectal tissue, liver, and brain were homogenized using an ULTRATURRAX™ tissue homogenizer (Tekamr, Cincinnati, Ohio) in a solution comprising 10 millimolar Tris-HCl, 150 millimolar KCl, and 25 millimolar MnCl2, at pH 7.4. The homogenates were dialyzed overnight against the same solution. Dialyzed homogenates were centrifuged to remove insoluble material and concentrated with Amicon CENTRICON™ 30 microconcentrators to yield stock protein preparations having protein concentrations of 2.4 milligrams per milliliter for IAS smooth muscle, 3.6 milligrams per milliliter for rectal smooth muscle, 3 milligrams per milliliter for brain, and 17.5 milligrams per milliliter for liver. Protein concentrations were estimated with the Pierce Coomassie Protein Reagent kit using bovine serum albumin as a standard.
(§2) Arginase activity in tissue homogenates was evaluated using the radioactive L-[guanidino^14C]arginine assay of Rüegg and Russell (1980, Anal. Biochem. 102:206-212). Assays were performed using a solution comprising 100 millimolar CHES-NaOH and 0.1 millimolar MnCl2 at pH 9.0. The reactions were initiated by addition of 5 microliters of tissue homogenate to 45 microliters of reaction mixture that contained the CHES buffer, the appropriate concentration of arginine (0.5 to 5 millimolar) and about 5.0×10^4 counts per minute of L-[guanidino-^14C]arginine. IAS, rectal muscle, and brain homogenates were incubated with the assay mixture at room temperature for one hour, and the liver sample was incubated for 5 minutes. The reactions were stopped by addition of 200 microliters of a stop solution containing 0.25 molar acetic acid, 7 molar urea, and 10 millimolar arginase at pH 4.5. Arginase has essentially no activity at the low pH of the stop solution. [^14C] Urea was separated from non-reacted L-[guanidino-^14C]arginine by treatment with 200 μl of 1:1 v/v slurry of DOWEX™ 50W-X8 in water, and quantitated by adding 200 microliters of the supernatant from the DOWEX™ treatment to 3 milliliters of LIQUISCENT™ (National Diagnostics) for liquid scintillation counting in a Beckman LS 5000CE counter. The data were analyzed using double-reciprocal plots of the initial velocity measurements; standard errors were determined by regression analysis.
(§3) Assays in the presence of the inhibitors N^ω-hydroxy-L-arginine (1 to 100 micromolar) and ABHA (0.05 to 100 micromolar) were performed as described above. The amino acid D-ornithine served as a control in these experiments, since this amino acid, unlike L-omithine, is not an inhibitor of arginase.

[2] = tested on: internal anal sphincter (IAS) smooth muscle; assay: NANC nerve-mediated relaxation of IAS smooth muscle strips by electrical field stimulation; set-up: species or system opossum (Didelphis virginiana); settings: for decrease in IAS tension after L-HO-Arg: 3×10^−4 molar; for reversal of L-NNA-suppressed IAS relaxation: with L-NNA, L-HO-Arg and ABHA 3×10^−4 molar
Excerpt: The entire anal canal was isolated carefully by dissection and transferred to a dissecting tray containing oxygenated (95% O2 plus 5% CO2) Krebs' solution. The composition of the Krebs' solution was as follows (in millimolar): NaCl, 118.07; KCl 4.69; […] MgSO4, 1.16; […] NaHCO3, 25 and glucose (Pufahl et al., 1995, Biochemistry 34:1930-1941; […] et al., 1993, Biochem. Biophys. Res. Commun. 196:1558-1565). The anal canal was cleaned of extraneous connective tissue and blood vessels. Following this, the anal canal was opened by making an incision along the longitudinal axis, and was pinned flat with the mucosal side facing up. The mucosa and submucosa were removed by sharp dissection. Circular smooth muscle strips were obtained from the whole circumference of the anal canal and divided into two equal strips (about 1×8 millimeters). Both ends of the muscle strips were secured with silk sutures (4-0: Ethicon Inc., Sommerville, N.J.) and used for the measurement of isometric tension. […] One end of each muscle strip was fixed to the bottom of the muscle bath with a tissue holder and the other end was attached to an isometric force transducer (model FT03; Grass Instruments Co., Quincy, Mass.) in order to measure isometric tension. Smooth muscle tension was recorded using a […] recorder (model […]; Beckman Instruments, Schiller Park, Ill.). […] J. Physiol. 255:[…]-[…]). Only those smooth muscle strips that developed spontaneous and steady tension and relaxed in response to electrical field stimulation (EFS) were used. EFS was delivered, via a pair of platinum wires, from a Grass stimulator (Model S88; Grass Instruments Co., Quincy, Mass.) connected in series to a Med-Lab […] (Med-Lab Instruments, Loveland, Colo.). […] These parameters of EFS are known to cause relaxation of IAS smooth muscle by selective activation of NANC myenteric neurons. Neurally-mediated relaxation of IAS smooth muscle strips was quantified in response to different frequencies of EFS. […] To determine the influence of arginase on NANC nerve-mediated relaxation of IAS, the effects of different doses of arginase on relaxation were first determined. […] The effectiveness of arginase inhibitors (L-OH-Arg and ABHA) on arginase-induced attenuation of EFS-induced IAS relaxation was then tested. Optimal doses of arginase and L-OH-Arg in IAS have been reported ([…] and […]. Pharmacol. Exp. Ther. 282:378-384). In order to determine the selectivity of arginase inhibitors in IAS, their effects on IAS relaxation suppressed by the NO synthase inhibitor L-NNA ([…]) were tested. […] To examine the physiological relevance of arginase inhibitors in IAS relaxation, the influence of selected concentrations of arginase inhibitors on EFS-induced IAS relaxation was examined. […] Each smooth muscle strip served as its own control. […] The results are expressed as means±standard error.

arginase [3] = settings: read-out: Ki previously reported; cited from earlier work
rectum arginase activity = assay: arginase activity in rectum homogenate; format: biochemical, opossum; settings: rectum; read-out: IC50 for inhibition of arginase activity, rectum homogenate
Excerpt: as §1, §2, §3

brain arginase activity = assay: arginase activity in brain homogenate; format: biochemical, opossum; settings: brain; read-out: IC50 for inhibition of arginase activity, brain homogenate
Excerpt: as §1
as §2, with “The reactions were stopped by addition of 200 microliters of a stop solution containing 0.25 molar acetic acid, 7 molar urea, and 10 millimolar arginase at pH 4.5. Arginase has essentially no activity at the low pH of the stop solution. [^14C]” left out, “analysis. […]” for “analysis.”

IAS arginase activity = assay: arginase activity in IAS homogenate; format: biochemical, opossum; settings: IAS; read-out: IC50 for inhibition of arginase activity, IAS homogenate
Excerpt: as §1
as §2, with “The reactions were stopped by addition of 200 microliters of a stop solution containing 0.25 molar acetic acid, 7 molar urea, and 10 millimolar arginase at pH 4.5. Arginase has essentially no activity at the low pH of the stop solution. [^14C]” left out, “analysis. […]” for “analysis.”

rat liver arginase [4] = molecular target: T1, rat liver arginase; assay: continuous chromogenic arginase assay with substrate 1-nitro-3-guanidinobenzene (compound 18); format: biochemical; set-up: made in house; settings: for tnpseudo (moles of inhibitor/mole of arginase): 2 millimolar compound 18 as substrate, pseudo-turnover number, smaller = better inhibition
Experimental: The activity of wild-type arginase was monitored spectrophotometrically using a Pharmacia BIOTECH ULTROSPEC™ 2000. Assays were performed in a solution comprising 100 micromolar MnCl2 and 50 millimolar bicine-NaOH (pH 9.0). […] Eadie-Hofstee plots were used to analyze the data.

arginase [5] = molecular target: T2, arginase (Rattus norvegicus, UniProt P07824); settings: cited from earlier work
T2 sequence (P07824 1-323): T1 sequence (P07824 1-323)

arginase [6] = molecular target: T2, arginase; assay: isothermal titration calorimetry; format: binding; set-up: made in house
Experimental: All calorimetry experiments were conducted on a MCS isothermal calorimeter from MicroCal, Inc. (Northampton, Mass.). Arginase was exhaustively dialyzed against a solution comprising 100 micromolar MnCl2 and 50 millimolar bicine-NaOH (pH 8.5). […] Prior to the titration experiment, samples were de-gassed under vacuum for 5 minutes. […] The contents of the sample cell were titrated with 30-40 aliquots (2.5 microliters each) of inhibitor (an initial 1 microliters injection was made, but not used in data analysis). After each injection, the heat change was measured and converted to the corresponding enthalpy value. The reaction mixture was continuously stirred at 400 rotations per minute during titration. Control experiments were carried out by titrating the inhibitor into the buffer solution under identical experimental conditions. Data analysis was performed using ORIGIN™ software provided with the instrument. The calorimetric data are presented with the background titrations subtracted from the experimental data. The amount of heat produced per injection was calculated by integration of the area under each peak. The data were fit to the following equation, […]

rat liver arginase [7] = molecular target: T1, rat liver arginase; assay: radioactive L-[guanidino-14C]arginine arginase assay (Example 3); format: biochemical; set-up: made in house
Experimental: Assays were performed in 100 micromolar MnCl2, 100 millimolar CHES-NaOH (pH 9.0). The reactions were initiated by addition of 5 microliters of a circa 1 unit per milliliter enzyme solution to 45 microliters of reaction mixture containing CHES buffer, 1.4 millimolar L-arginine, about 5.0×10^4 counts per minute of L-[guanidino- ^14C]arginine, and variable concentrations of the appropriate inhibitor. After a 5-15 minute reaction time, 200 microliters of a stop solution containing 7 molar urea, 10 millimolar L-arginine, and 0.25 molar acetic acid (pH 4.5) was added to the reaction (arginase has essentially no activity under these conditions). [^14C]-Urea was separated from non-reacted L-[guanidino-^14 C]arginine by treatment with 200 microliters of a 1:1 (vol/vol) slurry of DOWEX™ 50 W-X8 in water, and quantitated by adding 200 microliters of the supernatant from the DOWEX™ treatment to 3 milliliters of LIQUISCINT™ (National Diagnostics) for liquid scintillation counting in a Beckman LS5000CE counter.

## N=C(NO)NCCC[C@H](N)C(=O)O [N-hydroxyarginine, N^ω-hydroxy-L-arginine]
Rat liver arginase [1]
  IC50: 80 µM
Liver arginase activity; listed as L-HO-Arg
  potency against liver arginase activity relative to non-hepatic tissues: 10-20 fold
Liver arginase activity; listed as N^107-hydroxy-L-arginine
  potency against liver arginase activity relative to non-hepatic tissues: about 10 fold
Liver arginase activity; liver, read-out: IC50 for inhibition of arginase activity, liver homogenate
  IC50: 2.4 µM
[2]; 0.5 Hertz EFS
  decrease in IAS tension after L-HO-Arg: 57.4±4.9%
[2]; 1 Hertz EFS
  decrease in IAS tension after L-HO-Arg: 68.8±4.9%
[2]; exogenous arginase, L-HO-Arg 1×10^−4 molar
  effect on arginase-suppressed EFS-induced IAS relaxation: antagonized the effect of arginase; also recorded: reversal
[2]; lower frequencies of EFS, listed as L-HO-Arg
  augmentation of NANC nerve-mediated IAS relaxation by EFS: significant and concentration-dependent augmentation
[2]
  reversal of L-NNA-suppressed IAS relaxation: dose-dependent and complete reversal; also recorded: completely reversed
Arginase [3]
  Ki: 42 µM
Rectum arginase activity
  IC50: 42 µM
Brain arginase activity
  IC50: 40 µM
IAS arginase activity
  IC50: 25 µM

## N[C@@H](CCCB(O)O)C(=O)O [compound 12, 2(S)-amino-5-boronopentanoic acid]
Rat liver arginase [4]
  tnpseudo (moles of inhibitor/mole of arginase): 420 ± 30 moles of inhibitor/mole of arginase
Rat liver arginase [4]; substrate 18
  fold less potent than compounds 7 and 15 (from tnpseudo): about 400 fold

## NCCC[C@H](N)C(=O)O [ornithine]
Arginase [5]; read-out: Ki
  Ki: 1000 µM

## N[C@@H](CSCCB(O)O)C(=O)O [compound 15, S-(2-boronoethyl)-L-cysteine]
Arginase [6]
  Kd: 2.22 µM
Arginase [6]; pH 8.5, 25° C.
  association constant (Ka): 4.50×10^5 inverse molar
  enthalpy change (ΔH) of binding: −12.75 kilocalories per mole
  stoichiometry (n), moles bound per mole of arginase monomer: 0.96 and 0.964
Rat liver arginase [7]
  Ki: 0.7 µM
Rat liver arginase [4]
  tnpseudo (moles of inhibitor/mole of arginase): 1.00 ± 0.004 moles of inhibitor/mole of arginase

## NCCCC[C@H](NO)C(=O)O [N-hydroxylysine]
Arginase [3]
  Ki: 4 µM

## N=C(NO)NCC[C@H](N)C(=O)O [N-hydroxy-nor-arginine]
Arginase [3]
  Ki: 0.5 µM

## N=C(N)NCCC[C@H](N)C(=O)O [L-arginine]
[2]
  reversal of L-NNA-suppressed IAS relaxation: significant and concentration-dependent reversal
Arginase [5]; as substrate
  kcat reported: 15,000±1200 reciprocal minutes
Arginase [5]; as substrate, read-out: KM reported
  Km: 1400 ± 300 µM

## N=C(N)Nc1cccc([N+](=O)[O-])c1 [compound 18, 1-nitro-3-guanidinobenzene]
Rat liver arginase [4]; as substrate, monomer 35 kilodaltons
  kcat for arginase-catalyzed hydrolysis: 0.09±0.02 reciprocal minutes

## NC(CCCCC(N)C(=O)O)=NO (centres unmarked) [N-hydroxyindospicine]
Arginase [3]
  Ki: 20 µM

## N[C@@H](CSCC[Si](O)(O)O)C(=O)O [compound 16, S-(2-trihydroxysilylethyl)-L-cysteine]
Rat liver arginase [4]; assay with substrate 18, assuming competitive inhibition
  Ki: 420 µM

## O[B-](O)(O)O [borate]
Arginase [5]; non-competitive inhibitor, read-out: KII
  Ki: 260 µM
Arginase [5]; non-competitive inhibitor, read-out: KIS
  Ki: 980 µM
